Results published in ChEMBL document CHEMBL1201862, “PubChem BioAssay data set” (2004).
Active and inactive are the calls of the source.

Columns and labels:
[1] = biological target: T1, Corticotropin-releasing factor receptor 2/Corticotropin-releasing factor-binding protein (Homo sapiens, UniProt P24387+Q13324); assay: Dose Response confirmation of uHTS hits for small molecule antagonists of the CRF-binding protein and CRF-R2 receptor complex.; assay type: functional; details: read-out: IC50_Mean
T1 sequence (Q13324 whole entry): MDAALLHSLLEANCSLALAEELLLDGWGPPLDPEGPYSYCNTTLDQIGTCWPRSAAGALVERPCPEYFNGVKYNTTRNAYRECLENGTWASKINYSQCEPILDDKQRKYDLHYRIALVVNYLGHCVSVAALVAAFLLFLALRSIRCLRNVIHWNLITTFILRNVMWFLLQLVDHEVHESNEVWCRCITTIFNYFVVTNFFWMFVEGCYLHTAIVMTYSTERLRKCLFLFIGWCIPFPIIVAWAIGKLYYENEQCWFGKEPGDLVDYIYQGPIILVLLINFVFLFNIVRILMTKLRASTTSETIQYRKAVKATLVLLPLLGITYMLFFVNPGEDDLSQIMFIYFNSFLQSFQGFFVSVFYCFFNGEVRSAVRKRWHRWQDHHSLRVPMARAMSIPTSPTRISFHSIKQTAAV
T1 sequence (P24387 whole entry): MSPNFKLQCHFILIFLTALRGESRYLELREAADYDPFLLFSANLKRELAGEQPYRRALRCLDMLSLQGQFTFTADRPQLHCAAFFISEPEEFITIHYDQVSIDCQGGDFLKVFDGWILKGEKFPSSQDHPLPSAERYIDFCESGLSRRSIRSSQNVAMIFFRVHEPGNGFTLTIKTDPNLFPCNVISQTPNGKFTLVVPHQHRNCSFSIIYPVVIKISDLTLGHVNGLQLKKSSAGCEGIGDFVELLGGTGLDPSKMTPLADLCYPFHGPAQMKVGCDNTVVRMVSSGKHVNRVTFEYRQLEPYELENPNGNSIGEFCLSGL

[2] = CRF-BP/CRF-R2 complex antagonists, dose response, cell-based, uHTS hits, 384-well (AID 651639); assay type: functional, Homo sapiens; details: read-out: IC50_Mean
[3] = biological target: T2, Calpain-2 catalytic subunit (Sus scrofa, UniProt P43367); assay: pig calpain II inhibitor potency, dose response, biochemical, fluorogenic peptide substrate (AID 1420); assay type: functional
T2 sequence (P43367 whole entry): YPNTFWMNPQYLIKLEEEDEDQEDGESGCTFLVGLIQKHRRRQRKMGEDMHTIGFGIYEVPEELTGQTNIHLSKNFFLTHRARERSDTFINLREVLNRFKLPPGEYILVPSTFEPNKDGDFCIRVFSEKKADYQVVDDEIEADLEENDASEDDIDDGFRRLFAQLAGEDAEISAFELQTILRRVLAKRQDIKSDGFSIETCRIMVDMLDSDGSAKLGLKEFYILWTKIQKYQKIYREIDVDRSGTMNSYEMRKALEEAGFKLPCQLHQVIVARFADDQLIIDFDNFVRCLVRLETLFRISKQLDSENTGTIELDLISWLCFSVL

[4] = biological target: T1, Corticotropin-releasing factor receptor 2/Corticotropin-releasing factor-binding protein; assay: activators of CRF receptor 2 with binding protein – uHTS hits, confirmation (AID 602473); assay type: functional; details: read-out: EC50_Mean
[5] = biological target: T3, Endoribonuclease toxin MazF (Escherichia coli K-12, UniProt P0AE70); assay: MazF toxin RNase activators, dose response, biochemical, fluorescence, single-stranded RNA substrate, uHTS hits (AID 588481); assay type: functional
T3 sequence (P0AE70 whole entry): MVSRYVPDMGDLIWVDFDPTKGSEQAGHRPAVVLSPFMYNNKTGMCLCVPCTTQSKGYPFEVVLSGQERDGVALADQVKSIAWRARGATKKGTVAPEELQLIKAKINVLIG

[6] = biological target: T3, Endoribonuclease toxin MazF; assay: fluorescent RNA oligo signal without MazF, dose response, counter-screen for MazEF activator project, biochemical, fluorescence, single-stranded RNase substrate (AID 588502); assay type: functional
[7] = miR-122 activators in hepatoma reporter cells, dose response, cell-based, Huh7 psiCHECK-miR122, Renilla luciferase, cherry-picked (AID 651956); assay type: functional;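 also: huh7 hepatoma cells stably carrying a psiCHECK-2 miR-122 sensor plasmid; renilla luciferase signal reporting endogenous miR-122 activity after 48 h compound exposure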
Prothrombin = Prothrombin (Bos taurus, UniProt P00735); assay: thrombin inhibition, dose response, biochemical, fluorescence polarization, uHTS hits (AID 602369); assay type: functional
[8] = biological target: 26S proteasome non-ATPase regulatory subunit 14 (Homo sapiens, UniProt O00487); assay: inhibition of proteasome subunit RPN11 – biochemical, fluorescence polarization, uHTS hits, confirmation (AID 602368); assay type: functional
[9] = biological target: 72 kDa type IV collagenase (Homo sapiens, UniProt P08253); assay: Dose Response validation of uHTS RPN11 inhibitor hits using a MMP-2 Fluorescence assay.; assay type: functional
Estrogen receptor = biological target: T4, Estrogen receptor (Homo sapiens, UniProt P03372);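 also: potency for inhibiting coactivator peptide recruitment to the receptor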
T4 sequence (P03372 whole entry): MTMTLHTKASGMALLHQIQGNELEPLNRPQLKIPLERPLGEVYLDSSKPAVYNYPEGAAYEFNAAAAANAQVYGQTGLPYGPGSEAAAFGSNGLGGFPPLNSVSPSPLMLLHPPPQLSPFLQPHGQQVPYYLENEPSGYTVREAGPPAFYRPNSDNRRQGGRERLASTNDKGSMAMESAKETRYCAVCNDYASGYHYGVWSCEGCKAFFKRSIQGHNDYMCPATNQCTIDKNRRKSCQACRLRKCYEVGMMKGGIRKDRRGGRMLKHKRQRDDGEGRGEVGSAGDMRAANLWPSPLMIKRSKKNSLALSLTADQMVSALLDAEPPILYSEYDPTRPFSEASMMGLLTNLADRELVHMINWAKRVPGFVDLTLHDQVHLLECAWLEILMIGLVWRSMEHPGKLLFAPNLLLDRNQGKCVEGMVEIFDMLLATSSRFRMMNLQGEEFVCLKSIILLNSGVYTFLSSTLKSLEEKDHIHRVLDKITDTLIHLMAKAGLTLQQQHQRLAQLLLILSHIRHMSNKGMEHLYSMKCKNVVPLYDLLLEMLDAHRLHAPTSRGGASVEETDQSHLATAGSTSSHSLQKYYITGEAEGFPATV

[10] = biological target: 5-hydroxytryptamine receptor 2A (Mus musculus, UniProt P35363); assay type: functional, cell-based;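 also: CHO-K1 cells with tagged receptor and beta-arrestin; agonist potency measured as compound-induced activation of the receptor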
Mu-type opioid receptor = Mu-type opioid receptor (Homo sapiens, UniProt P35372); assay type: functional, cell-based;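 also: U2OS cells with beta-arrestin recruitment to OPRM1 by beta-gal complementation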
[11] = biological target: Induced myeloid leukemia cell differentiation protein Mcl-1 (Homo sapiens, UniProt Q07820); assay type: functional
cells [12] = assay type: functional, cell-based
cells [13] = assay type: functional, cell-based; remark: listed apart in the source
Genome polyprotein = Genome polyprotein (dengue virus type 2, UniProt P29990); assay: Dengue-2 NS5 methyltransferase inhibitors, primary screen, biochemical, confirmation dose response (AID 588689); assay type: functional
[14] = biological target: Photoreceptor-specific nuclear receptor (Homo sapiens, UniProt Q9Y5X4); assay type: functional, cell-based;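 also: CHO-S cells with Gal4-NCOR and VP16-NR2E3 two-hybrid luciferase reporter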
[15] = biological target: Glucose-6-phosphate 1-dehydrogenase (Homo sapiens, UniProt P11413); assay: human G6PD enzyme inhibitors, dose response, selectivity assay for P. falciparum G6PD inhibitor project, biochemical, fluorescence (AID 504792); assay type: functional
Vero = assay: cells; assay type: functional, cell-based; details: Chlorocebus sabaeus

Cc1cc(C)c(NC(=O)/C(=C/c2ccccc2)c2ccccc2)c(C)c1
IC50 [1]: 10.4 µM (active) | IC50 [2]: > 20 µM (inactive) | IC50 [3]: > 50 µM (not active) | EC50 [4]: > 53 µM (inactive)

Cc1nc(SCC(=O)c2cc3ccccc3oc2=O)c(C#N)c(-c2cccs2)c1C(=O)Nc1ccccc1
EC50 [5]: > 99 µM (inactive) | EC50 [6]: > 99 µM (inactive)

C[C@@H]1CN([C@@H](C)CO)S(=O)(=O)c2ccc(C3=CCCCC3)cc2O[C@@H]1CN(C)C(=O)Cc1ccncc1
AC50 [7]: 6.22 µM (active)

O=C(NCc1ccc(F)cc1)c1cccc2c1C(=O)c1ccc(N3CCOCC3)cc1S2(=O)=O
IC50 (Prothrombin): 24.1 µM (active) | IC50 [8]: 16.6 µM (active) | IC50 [9]: > 100 µM (inactive)

Cc1c(/C=N/n2cnnc2)c2ccccc2n1CCOc1ccc(Cl)cc1
EC50 [5]: > 99 µM (inactive) | EC50 [6]: > 99 µM (inactive) | IC50 (Estrogen receptor): > 50 µM (not active)

CCN(CC)S(=O)(=O)c1cc(NC(=O)CN2CCN(c3ccccn3)CC2)ccc1C
EC50 [10]: 0.761 µM (active) | EC50 (Mu-type opioid receptor): 92.5 µM (inactive)

COc1ccc(-c2ccc(/C=C3/C(=N)N4C=CSC4=NC3=O)o2)c([N+](=O)[O-])c1
EC50 [5]: 19.6 µM (active) | IC50 [11]: 1.52 µM (active) | EC50 [6]: > 99 µM (inactive)

O=C(COc1cccc2ccccc12)Nc1ccc(Cl)cc1C(=O)O
EC50 (cells [12]): > 350 µM (not active) | EC50 (cells [13]): > 350 µM (not active) | IC50 (Genome polyprotein): 37.7 µM (active) | IC50 [14]: 5.31 µM (active) | IC50 [15]: 52.6 µM (inactive) | IC50 (Vero): > 25 µM (active)
